Measurements published in patent publication US20210253562A1, “ACYLSUFONAMIDE COMPOUNDS USEFUL AS EP3 RECEPTOR ANTAGONISTS” (Janssen Pharmaceutica NV, priority 2018, published 2021).

Tests used:
[1] = target: T1, CHO cells over-expressing the EP3 receptor (Homo sapiens, UniProt P43115); assay: CHO cell cAMP assay; EP3 cAMP antagonist dose response (sulprostone reference), HTRF; assay type: cell-based; conditions: sulprostone 700 nM (EC80) and FSK 2 μM (EC70); read-out: CHO_cAMP IC50
T1 construct: expressed in transfected cells; host or cells: CHO cells
T1 sequence (P43115 1-390): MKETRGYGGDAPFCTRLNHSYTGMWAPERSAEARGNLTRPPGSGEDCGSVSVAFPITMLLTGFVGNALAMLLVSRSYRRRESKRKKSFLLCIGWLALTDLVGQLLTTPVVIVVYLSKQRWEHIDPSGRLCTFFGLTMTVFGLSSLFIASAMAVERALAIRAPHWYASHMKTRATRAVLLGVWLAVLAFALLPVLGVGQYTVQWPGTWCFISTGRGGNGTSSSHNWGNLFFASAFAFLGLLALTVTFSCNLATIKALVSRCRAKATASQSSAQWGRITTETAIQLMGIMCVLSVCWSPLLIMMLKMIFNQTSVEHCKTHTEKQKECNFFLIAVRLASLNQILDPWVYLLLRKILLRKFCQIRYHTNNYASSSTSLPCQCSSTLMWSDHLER
Procedure: Biological Example 2: CHO Cell cAMP Assay
This assay monitored the cAMP generation in CHO cells over-expressing the EP3 receptor in the presence or absence of antagonist stimulated with Forskolin (FSK, CAS No. 66428-89-5) and a known EP3 Agonist (sulprostone, CAS No. 60325-46-4). For detection, a homogeneous competitive immunoassay (Time Resolved Fluorescence Energy Transfer (hTR-FRET)) was used.
Cells (6K cells per well) were plated in Poly-D-Lysine coated plates the day before the assay was to be run and were incubated at 37° C. One hour before the assay the media was removed and replaced with assay buffer (500 mL HBSS (+Ca)+2.5 mL 1M HEPES+6.66 mL 7.5% BSA) (starved at 37° C.). At the start of the assay the buffer was removed from the cells and replaced with buffer containing test compound(s). Sulprostone at an EC80 dose (700 nM) and FSK at an EC70 dose (2 μM) were added to initiate the reaction (37° C. for 30 minutes).
FSK increases cAMP production and sulprostone decreases cAMP production produced by FSK. In this assay, EP3 antagonists will increase the cAMP to the level of cAMP generated by FSK alone.
The reaction was terminated with the addition of cAMP detection reagents (labeled cAMP and labeled cAMP antibody in lysis buffer (HTRF reagent, which utilizes a cryptate-labeled anti-cAMP and d2-labeled cAMP-d2 is an HTRF acceptor fluorophore)). Approximately one hour later the plates were read on an Envision (Perkin Elmer) in HTRF mode. Well results were calculated based on a ratio of counts at 665 nm and 615 nm (data output was a calculation of the ratio: (read @665 nm/read @ 615 nm)*1000. For test compounds dosed serially, well results were converted to nM cAMP using a cAMP standard run on each plate. nM cAMP from a set of wells dosed with test compound(s) were plotted. nM cAMP was calculated for each well from a standard curve located on each plate (P1-12 and P13-24) by first calculating the slope and deriving the intercept(b):
[formula] NScAMP_s tan dard_cruve=m(nM cAMP_s tan dard_curve)+b
NSP, NSN, NSsample were converted to nM cAMP using the following equation: […]
IC50 values were determined from a […] (Hill equation) of a single 11-point compound dosing. A best-fit curve was determined by the minimum sum of squares method plotting cAMP produced vs compound concentration.

[2] = target: T2, EP3 membrane (EP3 receptor) (Homo sapiens, UniProt P43115); assay: [3H]-PGE2 binding; EP3 competition binding (SPA)
T2 construct: purchased Millipore HTS092M
T2 sequence (P43115 1-390): T1 sequence (P43115 1-390)
Procedure: Biological Example 1: [3H]-PGE2 Binding
EP3 competition binding was determined using the following materials and experimental conditions: • Beads=Perkin Elmer RPNQ0001 • [3H]PGE2=Perkin Elmer NET428025UC • 384-well plate=Perkin Elmer 6007290 • EP3 membrane=Millipore HTS092M • Membrane concentration=2 μg/well • Beads concentration=0.25 mg/well • [3H]-PGE2=2 nM; DMSO—0.1% • Binding buffer=50 mM Tris, 10 mM MgCl2, 1 mM EDTA, PH 7.4.
The reaction system was prepared by mixing 5 μl of unlabeled compound; 5 μl of diluted [3H]-PGE2; 5 μl of diluted membrane; and 15 μl of SPA beads dissolved in binding buffer (adding in the following sequence: Unlabeled compound, [3H]-PGE2, Membrane and Beads).
The binding buffer was removed from refrigeration (@ 4° C.) and allowed to warm to room temperature. Test compound (@ stock concentration of […] in DMSO) was serial dilutes (1:3) with 100% DMSO using Echo plate. Diluted test compound (30 nL) was dispensed to the 384-well assay plate (using Echo 550 Labcyte System). To each well was then added assay buffer (5 μl) and each well was spun. Beads were weighed out, dissolved in assay buffer to a concentration of 0.25 mg/15 μl. Original membrane was diluted with assay buffer to a concentration of 2 μg/5 μl. Original [3H]-PGE2 with diluted with assay buffer to a concentration of 12 nM. To each test well were then added diluted [3H]-PGE2 (5 μl), diluted membrane (5 μl), and dissolved beads (15 μl). The plate was equilibrated at room temperature on a plate shaker for 2 hours and then read with a TOPCOUNT scintillation plate reader. Results were analyzed using a Prism program with non-linear regression, one-site fit for Ki.

| IC50 [1] [nM] | Ki [2] [nM] | Structure (SMILES) |
| --- | --- | --- |
| 92 | 11 | O=C(NS(=O)(=O)c1ccc(Cl)cc1)OC/C=C1\CCCc2cnn(Cc3ccc(Cl)cc3Cl)c21 [Compound #2, (E)-2-(1-(2,4-dichlorobenzyl)-1,4,5,6-tetrahydro-7H-indazol-7-ylidene)ethyl ((4-chlorophenyl)sulfonyl)carbamate] |
| 33 | 3 | O=C(C/C=C1\CCCc2cnn(Cc3ccc(Cl)cc3Cl)c21)NS(=O)(=O)c1cc(Cl)c(Cl)s1 [Compound #3, (E)-3-(1-(2,4-dichlorobenzyl)-1,4,5,6-tetrahydro-7H-indazol-7-ylidene)-N-((4,5-dichlorothiophen-2-yl)sulfonyl)propanamide] |
| 5 | 1 | O=C(NS(=O)(=O)c1cc(Cl)c(Cl)s1)OC/C=C1\CCCc2cnn(Cc3ccc(Cl)cc3Cl)c21 [Compound #5, (E)-2-(1-(2,4-dichlorobenzyl)-1,4,5,6-tetrahydro-7H-indazol-7-ylidene)ethyl ((4,5-dichlorothiophen-2-yl)sulfonyl)carbamate] |
| 110 | 84 | O=C(/C=C/C=C1\CCCc2cnn(Cc3ccc(Cl)cc3Cl)c21)NS(=O)(=O)c1cc(Cl)c(Cl)s1 [Compound #6, (E)-4-((E)-1-(2,4-dichlorobenzyl)-1,4,5,6-tetrahydro-7H-indazol-7-ylidene)-N-((4,5-dichlorothiophen-2-yl)sulfonyl)but-2-enamide] |
| – | 14 | Cc1nn(C)cc1S(=O)(=O)NC(=O)NC/C=C1\CCCc2cnn(Cc3ccc(Cl)cc3Cl)c21 [Compound #184, (E)-N-((2-(1-(2,4-dichlorobenzyl)-1,4,5,6-tetrahydro-7H-indazol-7-ylidene)ethyl)carbamoyl)-1,3-dimethyl-1H-pyrazole-4-sulfonamide] |
| – | 1 | Cc1cc(S(=O)(=O)NC(=O)NC/C=C2\CCCc3cnn(Cc4ccc(Cl)cc4Cl)c32)sc1Cl [Compound #185, (E)-5-chloro-N-((2-(1-(2,4-dichlorobenzyl)-1,4,5,6-tetrahydro-7H-indazol-7-ylidene)ethyl)carbamoyl)-4-methylthiophene-2-sulfonamide] |
| – | 30 | Cn1nc(Cc2ccc(Cl)cc2Cl)c2c1COC/C2=C(/F)CNC(=O)NS(=O)(=O)c1cc(Cl)c(Cl)s1 [Compound #186, (E)-4,5-dichloro-N-((2-(3-(2,4-dichlorobenzyl)-1-methyl-1,7-dihydropyrano[3,4-c]pyrazol-4(5H)-ylidene)-2-fluoroethyl)carbamoyl)thiophene-2-sulfonamide] |
| – | 1 | Cc1cc(S(=O)(=O)NC(=O)NC/C(F)=C2\CCCc3[nH]nc(Cc4ccc(Cl)cc4Cl)c32)sc1Cl [Compound #187, (Z)-5-chloro-N-((2-(3-(2,4-dichlorobenzyl)-1,5,6,7-tetrahydro-4H-indazol-4-ylidene)-2-fluoroethyl)carbamoyl)-4-methylthiophene-2-sulfonamide] |
| – | 8 | Cc1cc(Cl)ccc1Cc1nnn2c1/C(=C(\F)CNC(=O)NS(=O)(=O)c1cc(C)c(Cl)s1)CCC2 [Compound #188, (Z)-5-chloro-N-((2-(3-(4-chloro-2-methylbenzyl)-6,7-dihydro-[1,2,3]triazolo[1,5-a]pyridin-4(5H)-ylidene)-2-fluoroethyl)carbamoyl)-4-methylthiophene-2-sulfonamide] |
| – | 1 | Cn1nc2c(c1Cc1ccc(Cl)cc1Cl)/C(=C(\F)CNC(=O)NS(=O)(=O)c1cc(Cl)c(Cl)s1)COC2 [Compound #189, (E)-4,5-dichloro-N-((2-(3-(2,4-dichlorobenzyl)-2-methyl-2,7-dihydropyrano[3,4-c]pyrazol-4(5H)-ylidene)-2-fluoroethyl)carbamoyl)thiophene-2-sulfonamide] |
| – | 1 | Cc1cc(S(=O)(=O)NC(=O)NC/C(F)=C2\COCc3[nH]nc(Cc4ccc(Cl)cc4Cl)c32)sc1Cl [Compound #190, (E)-5-chloro-N-((2-(3-(2,4-dichlorobenzyl)-1,7-dihydropyrano[3,4-c]pyrazol-4(5H)-ylidene)-2-fluoroethyl)carbamoyl)-4-methylthiophene-2-sulfonamide] |
| – | 15 | O=C(NC/C(F)=C1\CCCc2cnn(Cc3cnn(-c4ccccc4)c3)c21)NS(=O)(=O)c1cc(Cl)c(Cl)s1 [Compound #191, (Z)-4,5-dichloro-N-((2-fluoro-2-(1-((1-phenyl-1H-pyrazol-4-yl)methyl)-1,4,5,6-tetrahydro-7H-indazol-7-ylidene)ethyl)carbamoyl)thiophene-2-sulfonamide] |
| – | 6 | Cc1cc(S(=O)(=O)NC(=O)NC/C=C2\CCCc3cnn(Cc4ccc(Cl)cc4Cl)c32)n(C)n1 [Compound #192, (E)-N-((2-(1-(2,4-dichlorobenzyl)-1,4,5,6-tetrahydro-7H-indazol-7-ylidene)ethyl)carbamoyl)-1,3-dimethyl-1H-pyrazole-5-sulfonamide] |
| – | 75 | Cc1cc(S(=O)(=O)NC(=O)NC/C(F)=C2\CCCc3cnn(Cc4ccc(Cl)cc4Cl)c32)n(C)n1 [Compound #193, (Z)—N-((2-(1-(2,4-dichlorobenzyl)-1,4,5,6-tetrahydro-7H-indazol-7-ylidene)-2-fluoroethyl)carbamoyl)-1,3-dimethyl-1H-pyrazole-5-sulfonamide] |
| – | 25 | Cn1ncc2ccc(S(=O)(=O)NC(=O)NC/C(F)=C3\CCCc4cnn(Cc5ccc(Cl)cc5Cl)c43)cc21 [Compound #194, (Z)—N-((2-(1-(2,4-dichlorobenzyl)-1,4,5,6-tetrahydro-7H-indazol-7-ylidene)-2-fluoroethyl)carbamoyl)-1-methyl-1H-indazole-6-sulfonamide] |
| – | 45 | Cn1ncc2cc(S(=O)(=O)NC(=O)NC/C(F)=C3\CCCc4cnn(Cc5ccc(Cl)cc5Cl)c43)ccc21 [Compound #195, (Z)—N-((2-(1-(2,4-dichlorobenzyl)-1,4,5,6-tetrahydro-7H-indazol-7-ylidene)-2-fluoroethyl)carbamoyl)-1-methyl-1H-indazole-5-sulfonamide] |
| – | 1 | Cc1cc(S(=O)(=O)NC(=O)NC/C=C2\CCCc3cnn(-c4ccc(Cl)cc4Cl)c32)sc1Cl [Compound #196, (E)-5-chloro-N-((2-(1-(2,4-dichlorophenyl)-1,4,5,6-tetrahydro-7H-indazol-7-ylidene)ethyl)carbamoyl)-4-methylthiophene-2-sulfonamide] |
| – | 8 | Cc1ncc(S(=O)(=O)NC(=O)NC/C(F)=C2\CCCc3cnn(Cc4ccc(Cl)cc4Cl)c32)cc1Cl [Compound #197, (Z)-5-chloro-N-((2-(1-(2,4-dichlorobenzyl)-1,4,5,6-tetrahydro-7H-indazol-7-ylidene)-2-fluoroethyl)carbamoyl)-6-methylpyridine-3-sulfonamide] |
